ChEMBL document CHEMBL4842383 (J Med Chem, 2021)

Key:
BaF3 = test: Antiproliferative activity against mouse BaF3 cells transfected with human ETV6-CSF1R assessed as reduction in cell viability measured after 72 hrs by MTS method; conditions: BaF3, 72 h
NFS-60 = test: Antiproliferative activity against mouse NFS-60 cells transfected with human ETV6-CSF1R assessed as reduction in cell viability measured after 72 hrs by MTS method; assay type: functional, cell-based; conditions: NFS-60, 72 h
Aurora kinase B [1] = biological target: T1, Aurora kinase B (Homo sapiens, UniProt Q96GD4); test: Inhibition of human recombinant full length GST-AURKB using tetra(-LRRASLG) peptide as substrate incubated for 20 mins by ATP Kinase Glo assay; design: species or system Sf9
BMDM [2] = test: Growth inhibition of CSF2-induced mouse BMDM cell assessed as inhibition of M1 like macrophage growth for 3 days by WST-8 assay; conditions: 72 h
[3] = biological target: T2, Aurora kinase A (Homo sapiens) (UniProt O14965); test: Inhibition of recombinant GST-AURKA (residues Ser123 to Ser401) (unknown origin) expressed in Sf9 insect cells using tetra(-LRRASLG) peptide as substrate at 1 uM incubated for 90 mins by ATP Kinase Glo assay
T2 sequence (whole entry): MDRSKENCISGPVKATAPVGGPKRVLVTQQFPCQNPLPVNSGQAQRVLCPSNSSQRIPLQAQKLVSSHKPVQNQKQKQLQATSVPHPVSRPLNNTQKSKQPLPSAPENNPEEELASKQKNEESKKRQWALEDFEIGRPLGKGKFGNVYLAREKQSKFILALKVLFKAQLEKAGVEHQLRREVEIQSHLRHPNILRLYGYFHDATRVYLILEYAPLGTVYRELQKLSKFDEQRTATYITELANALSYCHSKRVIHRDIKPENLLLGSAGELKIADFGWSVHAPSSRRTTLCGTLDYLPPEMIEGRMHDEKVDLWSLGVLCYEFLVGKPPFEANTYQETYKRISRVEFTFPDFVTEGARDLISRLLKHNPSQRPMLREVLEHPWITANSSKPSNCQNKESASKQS

BMDM [4] = test: Growth inhibition of CSF1-induced mouse BMDM cell assessed as inhibition of M2 like macrophage growth incubated for 3 days by WST-8 assay; conditions: 72 h
[5] = Half life in Sprague-Dawley rat at 5 mg/kg, iv measured up to 24 hrs by LC-MS/MS analysis; assay type: ADME, organism-based; conditions: in vivo
[6] = biological target: Macrophage colony-stimulating factor 1 receptor (Homo sapiens, UniProt P07333); test: Inhibition of human recombinant GST-CSF1R (residues L534 to C972) expressed in Sf9 insect cells using poly(Glu,Tyr) as substrate incubated for 20 mins by ATP Kinase Glo assay
[7] = Oral bioavailability in Sprague-Dawley rat at 20 to 25 mg/kg measured up to 24 hrs by LC-MS/MS analysis; assay type: ADME, organism-based; conditions: in vivo, dose 20-25 mg/kg
Aurora kinase A = biological target: T3, Aurora kinase A (Homo sapiens, UniProt O14965); test: Inhibition of recombinant GST-AURKA (residues Ser123 to Ser401) (unknown origin) expressed in Sf9 insect cells using tetra(-LRRASLG) peptide as substrate incubated for 90 mins by ATP Kinase Glo assay
T3 sequence (O14965 whole entry): T2 sequence (whole entry)

[8] = Tmax in Sprague-Dawley rat at 20 to 25 mg/kg, po measured up to 24 hrs by LC-MS/MS analysis; assay type: ADME, organism-based; conditions: in vivo, dose 20-25 mg/kg
[9] = Dose normalized AUC (0 to inf) in Sprague-Dawley rat at 20 to 25 mg/kg, po measured up to 24 hrs by LC-MS/MS analysis; assay type: ADME, organism-based; conditions: in vivo, dose 20-25 mg/kg
Aurora kinase B [10] = biological target: T1, Aurora kinase B; test: Inhibition of human recombinant full length GST-AURKB using tetra(-LRRASLG) peptide as substrate at 0.1 uM incubated for 20 mins by ATP Kinase Glo assay; assay type: biochemical; conditions: Sf9
[11] = Volume of distribution at steady state in Sprague-Dawley rat at 5 mg/kg, iv measured up to 24 hrs by LC-MS/MS analysis; assay type: ADME, organism-based; conditions: in vivo, read-out: Vdss
[12] = Dose normalized Cmax in Sprague-Dawley rat at 20 to 25 mg/kg, po measured up to 24 hrs by LC-MS/MS analysis; assay type: ADME, organism-based; conditions: in vivo, dose 20-25 mg/kg
[13] = Dose normalized AUC (0 to inf) in Sprague-Dawley rat at 5 mg/kg, iv measured up to 24 hrs by LC-MS/MS analysis; assay type: ADME, organism-based; conditions: in vivo
[14] = Clearance in Sprague-Dawley rat at 5 mg/kg, iv measured up to 24 hrs by LC-MS/MS analysis; assay type: ADME, organism-based; conditions: in vivo
[15] = Half life in Sprague-Dawley rat at 20 to 25 mg/kg, po measured up to 24 hrs by LC-MS/MS analysis; assay type: ADME, organism-based; conditions: in vivo, dose 20-25 mg/kg

T1 sequence (Q96GD4 whole entry): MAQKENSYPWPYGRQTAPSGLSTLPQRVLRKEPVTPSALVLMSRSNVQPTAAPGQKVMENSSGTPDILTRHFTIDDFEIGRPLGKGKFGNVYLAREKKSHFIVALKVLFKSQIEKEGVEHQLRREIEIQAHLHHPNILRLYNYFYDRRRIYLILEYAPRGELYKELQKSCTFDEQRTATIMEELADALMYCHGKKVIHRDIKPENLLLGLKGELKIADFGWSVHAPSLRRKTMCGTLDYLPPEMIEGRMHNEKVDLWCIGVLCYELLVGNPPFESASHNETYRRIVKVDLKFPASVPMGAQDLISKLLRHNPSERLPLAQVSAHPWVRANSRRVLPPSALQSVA
Sequence of Macrophage colony-stimulating factor 1 receptor (P07333 whole entry, the tested form may be a part): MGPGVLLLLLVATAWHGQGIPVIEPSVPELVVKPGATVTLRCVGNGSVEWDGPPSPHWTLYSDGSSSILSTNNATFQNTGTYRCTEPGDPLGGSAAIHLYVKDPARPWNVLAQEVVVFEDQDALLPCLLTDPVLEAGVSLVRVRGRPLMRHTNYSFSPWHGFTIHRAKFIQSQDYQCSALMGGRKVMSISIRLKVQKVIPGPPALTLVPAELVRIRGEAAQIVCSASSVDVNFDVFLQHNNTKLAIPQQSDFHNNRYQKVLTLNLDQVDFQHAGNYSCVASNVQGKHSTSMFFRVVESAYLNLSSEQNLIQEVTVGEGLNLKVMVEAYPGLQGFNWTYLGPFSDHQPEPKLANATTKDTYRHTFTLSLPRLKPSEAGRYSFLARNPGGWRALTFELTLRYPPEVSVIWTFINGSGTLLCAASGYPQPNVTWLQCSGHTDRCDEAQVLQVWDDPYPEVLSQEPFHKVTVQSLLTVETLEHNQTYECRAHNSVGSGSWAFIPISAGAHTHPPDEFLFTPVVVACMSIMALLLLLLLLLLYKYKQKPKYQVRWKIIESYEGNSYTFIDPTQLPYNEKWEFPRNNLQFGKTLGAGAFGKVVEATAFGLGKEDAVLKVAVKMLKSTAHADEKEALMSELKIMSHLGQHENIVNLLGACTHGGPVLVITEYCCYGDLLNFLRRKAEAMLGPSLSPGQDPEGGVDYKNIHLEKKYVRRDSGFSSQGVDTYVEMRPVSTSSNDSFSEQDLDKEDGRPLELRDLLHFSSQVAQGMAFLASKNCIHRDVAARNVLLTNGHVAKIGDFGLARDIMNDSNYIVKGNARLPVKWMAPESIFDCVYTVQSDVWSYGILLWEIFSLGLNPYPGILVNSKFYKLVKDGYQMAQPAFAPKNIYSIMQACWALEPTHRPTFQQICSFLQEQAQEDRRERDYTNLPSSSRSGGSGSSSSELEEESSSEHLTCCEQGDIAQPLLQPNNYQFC

Row | EC50 (BaF3) [nM] | IC50 (Aurora kinase B [1]) [nM] | inhibition [3] [%] | half-life [5] [h] | IC50 [6] [nM] | bioavailability [7] [%] | IC50 (Aurora kinase A) [nM] | Tmax [8] [h] | AUCt/dose [9] [ng.hr/mL per mg/kg] | inhibition (Aurora kinase B [10]) [%] | Vd [11] [L/kg] | Cmax/dose [12] [ng/mL] | AUCt/dose [13] [ng.hr/mL per mg/kg] | clearance [14] [mL/min/kg] | half-life [15] [h] | SMILES | EC50 (NFS-60) [nM] | IC50 (BMDM [2]) [nM] | IC50 (BMDM [4]) [nM]
1 | 200 | 643 | 63 | – | – | – | – | – | – | – | – | – | – | – | – | FC(F)(F)c1ccc(CNc2ccc(Cc3c[nH]c4ncc(Cl)cc34)cn2)cn1 [PEXIDARTINIB] | 294 | > 10000 | 56
2 | 46 | – | 5 | 3.3 | 8.3 | 7.3 | > 10000 | 0.5 | 89 | 27 | 1.4 | 56 | 1225 | 12.2 | 24.2 | CN(C)c1ccc2c(Oc3ccc(NC(=O)NCc4ccc(F)cc4)cc3)ncnc2c1 | 69 | – | –
3 | 23 | 22.2 | 23 | 1.6 | 14.1 | 3.2 | > 10000 | 2.7 | 91 | 34 | 0.7 | 10.6 | 2842 | 5.6 | 4 | COc1ccc(NC(=O)Nc2ccc(Oc3ncnc4cc(N(C)C)ccc34)cc2)cc1 | 23 | – | –
